Test results reported in ChEMBL document CHEMBL4706678, “Trivalent sulfonium compounds (TSCs): Tetrahydrothiophene-based amphiphiles exhibit similar antimicrobial activity to analogous ammonium-based amphiphiles” (Bioorg Med Chem Lett, 2021).

tested on: Staphylococcus aureus; assay: Antimicrobial activity against methicillin-susceptible Staphylococcus aureus SH1000 assessed as inhibition of microbial growth; format: functional; conditions: not given

Row | SMILES | MIC [µM]
1 | CCCCCCCCCCCCCCCCCC[S+]1CCCC1.[I-] | 1
2 | C(CCCCCC[S+]1CCCC1)CCCCC[S+]1CCCC1.[I-].[I-] | 250
3 | CCCCCCCCCCCCCC[N+]1(C)CCCC1.[Br-] | 4
4 | CCCCCCCC[N+]1(C)CCCC1.[Br-] | > 250
5 | CCCCCCCCCCC[S+]1CCCC1.[I-] | 125
6 | CCCCCCCCCCC[N+]1(C)CCCC1.[Br-] | 125
7 | CCCCCCCCCCCC[S+]1CCCC1.[I-] | 16
8 | CCCCCCCC[S+]1CCCC1.[I-] | > 250
9 | CCCCCCCCCC[S+]1CCCC1.[I-] | 250
10 | CCCCCCCCCCCCCCCC[N+]1(C)CCCC1.[Br-] | 4
11 | C[N+]1(CCCCCCCCCCCC[N+]2(C)CCCC2)CCCC1.[Br-].[Br-] | > 250

tested on: Staphylococcus aureus; assay: microbe, parasite or virus in culture; format: functional; conditions: ATCC 33591
Description: Antimicrobial activity against hospital acquired methicillin-resistant Staphylococcus aureus ATCC 33591 assessed as inhibition of microbial growth

Row | SMILES | MIC [µM]
12 | CCCCCCCCCCCCCCCCCC[S+]1CCCC1.[I-] | 8
13 | C(CCCCCC[S+]1CCCC1)CCCCC[S+]1CCCC1.[I-].[I-] | > 250
14 | CCCCCCCCCCCCCC[N+]1(C)CCCC1.[Br-] | 16
15 | CCCCCCCC[N+]1(C)CCCC1.[Br-] | > 250
16 | CCCCCCCCCCC[S+]1CCCC1.[I-] | 250
17 | CCCCCCCCCCC[N+]1(C)CCCC1.[Br-] | > 250
18 | CCCCCCCCCCCC[S+]1CCCC1.[I-] | 125
19 | CCCCCCCC[S+]1CCCC1.[I-] | > 250
20 | CCCCCCCCCC[S+]1CCCC1.[I-] | > 250
21 | CCCCCCCCCCCCCCCC[N+]1(C)CCCC1.[Br-] | 8
22 | C[N+]1(CCCCCCCCCCCC[N+]2(C)CCCC2)CCCC1.[Br-].[Br-] | > 250

tested on: Staphylococcus aureus; assay: Antimicrobial activity against community acquired methicillin-resistant Staphylococcus aureus USA300 assessed as inhibition of microbial growth; format: functional; conditions: not given

Row | SMILES | MIC [µM]
23 | CCCCCCCCCCCCCCCCCC[S+]1CCCC1.[I-] | 4
24 | C(CCCCCC[S+]1CCCC1)CCCCC[S+]1CCCC1.[I-].[I-] | 250
25 | CCCCCCCCCCCCCC[N+]1(C)CCCC1.[Br-] | 8
26 | CCCCCCCC[N+]1(C)CCCC1.[Br-] | > 250
27 | CCCCCCCCCCC[S+]1CCCC1.[I-] | 250
28 | CCCCCCCCCCC[N+]1(C)CCCC1.[Br-] | 125
29 | CCCCCCCCCCCC[S+]1CCCC1.[I-] | 16
30 | CCCCCCCC[S+]1CCCC1.[I-] | > 250
31 | CCCCCCCCCC[S+]1CCCC1.[I-] | 250
32 | CCCCCCCCCCCCCCCC[N+]1(C)CCCC1.[Br-] | 2
33 | C[N+]1(CCCCCCCCCCCC[N+]2(C)CCCC2)CCCC1.[Br-].[Br-] | > 250

tested on: Enterococcus faecalis; assay: Antimicrobial activity against Enterococcus faecalis OG1RF assessed as inhibition of microbial growth; format: functional; conditions: not given

Row | SMILES | MIC [µM]
34 | CCCCCCCCCCCCCCCCCC[S+]1CCCC1.[I-] | > 250
35 | C(CCCCCC[S+]1CCCC1)CCCCC[S+]1CCCC1.[I-].[I-] | > 250
36 | CCCCCCCCCCCCCC[N+]1(C)CCCC1.[Br-] | > 250
37 | CCCCCCCC[N+]1(C)CCCC1.[Br-] | > 250
38 | CCCCCCCCCCC[S+]1CCCC1.[I-] | > 250
39 | CCCCCCCCCCC[N+]1(C)CCCC1.[Br-] | > 250
40 | CCCCCCCCCCCC[S+]1CCCC1.[I-] | > 250
41 | CCCCCCCC[S+]1CCCC1.[I-] | > 250
42 | CCCCCCCCCC[S+]1CCCC1.[I-] | > 250
43 | CCCCCCCCCCCCCCCC[N+]1(C)CCCC1.[Br-] | > 250
44 | C[N+]1(CCCCCCCCCCCC[N+]2(C)CCCC2)CCCC1.[Br-].[Br-] | > 250

tested on: Pseudomonas aeruginosa; assay: Antimicrobial activity against Pseudomonas aeruginosa PAO1 assessed as inhibition of microbial growth; format: functional; conditions: not given

Row | SMILES | MIC [µM]
45 | CCCCCCCCCCCCCCCCCC[S+]1CCCC1.[I-] | 250
46 | C(CCCCCC[S+]1CCCC1)CCCCC[S+]1CCCC1.[I-].[I-] | > 250
47 | CCCCCCCCCCCCCC[N+]1(C)CCCC1.[Br-] | > 250
48 | CCCCCCCC[N+]1(C)CCCC1.[Br-] | > 250
49 | CCCCCCCCCCC[S+]1CCCC1.[I-] | > 250
50 | CCCCCCCCCCC[N+]1(C)CCCC1.[Br-] | > 250
51 | CCCCCCCCCCCC[S+]1CCCC1.[I-] | > 250
52 | CCCCCCCC[S+]1CCCC1.[I-] | > 250
53 | CCCCCCCCCC[S+]1CCCC1.[I-] | > 250
54 | CCCCCCCCCCCCCCCC[N+]1(C)CCCC1.[Br-] | > 250
55 | C[N+]1(CCCCCCCCCCCC[N+]2(C)CCCC2)CCCC1.[Br-].[Br-] | > 250

tested on: Escherichia coli; assay: Antimicrobial activity against Escherichia coli MC4100 assessed as inhibition of microbial growth; format: functional; conditions: not given

Row | SMILES | MIC [µM]
56 | CCCCCCCCCCCCCCCCCC[S+]1CCCC1.[I-] | 63
57 | C(CCCCCC[S+]1CCCC1)CCCCC[S+]1CCCC1.[I-].[I-] | > 250
58 | CCCCCCCCCCCCCC[N+]1(C)CCCC1.[Br-] | 250
59 | CCCCCCCC[N+]1(C)CCCC1.[Br-] | > 250
60 | CCCCCCCCCCC[S+]1CCCC1.[I-] | > 250
61 | CCCCCCCCCCC[N+]1(C)CCCC1.[Br-] | > 250
62 | CCCCCCCCCCCC[S+]1CCCC1.[I-] | > 250
63 | CCCCCCCC[S+]1CCCC1.[I-] | > 250
64 | CCCCCCCCCC[S+]1CCCC1.[I-] | > 250
65 | CCCCCCCCCCCCCCCC[N+]1(C)CCCC1.[Br-] | 125
66 | C[N+]1(CCCCCCCCCCCC[N+]2(C)CCCC2)CCCC1.[Br-].[Br-] | > 250

tested on: Erythrocyte; assay: Hemolytic activity against human RBC assessed as concentration required to cause >20% hemolysis; format: ADME, cell-based; conditions: not given

Row | SMILES | HC20 [µM]
67 | CCCCCCCCCCCCCCCC[n+]1ccccc1.[Cl-] | 8
68 | CCCCCCCCCCCCCCCCCC[S+]1CCCC1.[I-] | 16
69 | C(CCCCCC[S+]1CCCC1)CCCCC[S+]1CCCC1.[I-].[I-] | 250
70 | CCCCCCCCCCCCCC[N+]1(C)CCCC1.[Br-] | 32
71 | CCCCCCCC[N+]1(C)CCCC1.[Br-] | 125
72 | CCCCCCCCCCC[S+]1CCCC1.[I-] | 125
73 | CCCCCCCCCCC[N+]1(C)CCCC1.[Br-] | 125
74 | CCCCCCCCCCCC[S+]1CCCC1.[I-] | 125
75 | CCCCCCCC[S+]1CCCC1.[I-] | 125
76 | CCCCCCCCCC[S+]1CCCC1.[I-] | 125
77 | CCCCCCCCCCCCCCCC[N+]1(C)CCCC1.[Br-] | 16
78 | C[N+]1(CCCCCCCCCCCC[N+]2(C)CCCC2)CCCC1.[Br-].[Br-] | 125
